Patent publication US7612107B2, “Treatment and inhibition of disease conditions using flexible heteroarotinoids” (The Board of Regents of the University of Oklahoma, priority 2005, dated 2009)

What was measured:
[1] = test system: A2780 ovarian xenograft tumors; assay: A2780 ovarian xenograft tumor model; format: in vivo, mouse; settings: ovarian cancer model
Description: FIG. 12. Various Xenograft tumors stained with CD34 antibodies (brown) to identify endothelium. The B16 mouse melanoma cell line was established as a syngeneic tumor in an immunocompetent mouse model and the human Caki renal cancer and A2780 ovarian xenograft tumors in immunocompromised mice. The treated mice were gavaged with 60 mg/kg/day SHetA2 and the untreated were gavaged with solvent only. The tumors were excised and sections were stained with the anti-CD34 antibody to detect endothelial cells (brown stain).
Survival was the primary endpoint of those studies. […] Tumor growth was the primary endpoint of the renal cancer study.

ovarian cancer cells = assay: Microarray analysis of gene expression in SHetA2-treated ovarian cancer cells; format: cell-based, Homo sapiens
Description: Microarray analysis was conducted to determine specific disease causing genes which were expressed at higher (>1 fold) or lower (<1 fold) levels than normal in ovarian cancer cells treated with SHetA2 (see Table 6).

[2] = test system: Thymidine Phosphorylase (TP); assay: Real time rt-PCR and Western blot validation, thymidine phosphorylase; format: cell-based; settings: OVCAR-3 1 μM (rt-PCR); A2780 10 μM (Western)
Description: FIG. 13. Real Time rt-PCR validation of SHetA2 inhibition of TP and TSP-1 mRNA Expression. OVCAR-3 cultures were treated with 1 μM SHetA2 for the indicated period of time prior to harvesting the cells and isolating RNA. cDNA was prepared and used in real time rt-PCR reactions. Real time rt-PCR was performed on cDNA from cultures various treatment times.
FIG. 14. Western blot validation of SHetA2 inhibition of TP and TSP4 protein expression. A2780 ovarian cancer cells were treated with 10 μM SHetA2 for the indicated amounts of time. Equal amounts of whole cell protein extracts were evaluated by Western blot.

[3] = Genbank AI358954, Neuromuscular Diseases

CC1(C)CC(C)(C)c2cc(NC(=S)Nc3ccc([N+](=O)[O-])cc3)ccc2S1 [SHetA2]
Survival [1]: improved survival
Fold: Putative c-Myc-responsive (RCL) (ovarian cancer cells; Genbank AA523444, Cancer): 0.41 Fold
Fold: Myeloidlymphoid or mixed-lineage leukemia (trithorax (Drosophila) homolog); translocated to, 4 (HGC6.3) (ovarian cancer cells; Genbank AB016902.2, Cancer): 5.07 Fold
Fold: Vascular endothelial growth factor (VEGF) (ovarian cancer cells; Genbank AF022375.1): 0.47 Fold
Fold: METH1 protein (METH1), contain a repeated amino acid motif homologous to the anti-angiogenic type 1 repeats of thromospondin-1 (TSP1) (ovarian cancer cells; Genbank AF060152.1): 0.39 Fold
Fold: EHT protein (ovarian cancer cells; Genbank AF068266.1, Cancer): 2.80 Fold
Fold: Familial Mediterranean fever locus region (ovarian cancer cells; Genbank AF098968.1, Autoimmune Diseases): 0.30 Fold
Fold: Myeloidlymphoid leukemia 2 (MLL2) (ovarian cancer cells; Genbank AF105279.1, Cancer): 0.31 Fold
Fold: Glypican-6 (GPC6) (ovarian cancer cells; Genbank AF111178.1): 2.07 Fold
Fold: Hemochromatosis splice variant 495-2314del, Iron Storage Disorder (ovarian cancer cells; Genbank AF144243.1, Storage and Metabolism Deficiencies): 3.01 Fold
Fold: BAGE2 antigen (BAGE2) (ovarian cancer cells; Genbank AF218570.1, Cancer): 0.34 Fold
Fold: Prothymosin alpha (PTMA) (ovarian cancer cells; Genbank AF257099, Polycystic Kidney Disease): 2.60 Fold
Fold: Deleted in lymphocytic leukemia, 2/DEF = Homo sapiens BCMS-upstream neighbor (BCMSUN) (ovarian cancer cells; Genbank AF264787.1, Cancer): 0.33 Fold
Fold: Deleted in lymphocytic leukemia, BCMS-upstream neighbor (BCMSUN) (DLEU2) (ovarian cancer cells; Genbank AF264787.1, Cancer): 0.40 Fold
Fold: PNAS-128 in leukemia (ovarian cancer cells; Genbank AF277186.1, Cancer): 0.36 Fold
Fold: BAM in multiple myeloma (ovarian cancer cells; Genbank AF455755.1, Cancer): 3.05 Fold
Fold: Cervical cancer suppressor gene-4 protein (HCCS-4) (ovarian cancer cells; Genbank AF465843.1, Cancer): 2.06 Fold
Fold: FLJ23538 fis, highly similar to BETA2 Human MEN1(Multiple Endocrine Neoplasia) region clone epsilonbeta (BETA2) (ovarian cancer cells; Genbank AI042152, Cancer): 0.31 Fold
Fold: ESTs, Moderately similar to S72399 ras-homolog GTPase rab28 isoform S (ovarian cancer cells; Genbank AI080106, Cancer): 7.75 Fold
Fold: Prostate cancer associated protein 5 (PCANAP5) (ovarian cancer cells; Genbank AI299378, Cancer): 0.23 Fold
Fold: ESTs, Weakly similar to DRPL_Human Atrophin-1 (DRPL) in Huntington's disease (HD) and dentatorubral and pallidoluysian atrophy (DRPLA) dentatorubral-pallidoluysian atrophy (ovarian cancer cells; [3]): 2.52 Fold
Fold: ESTs, Weakly similar to DRPL_Human Atrophin-1 (DRPL) in dentatorubral-pallidoluysian atrophy (ovarian cancer cells; [3]): 2.52 Fold
Fold: B-cell CLLlymphoma 3 (BCL3) (ovarian cancer cells; Genbank AI829875, Cancer): 2.58 Fold
Fold: Lipoma cell line Li-538SV40 ectopic sequence from HMGI-C fusion mRNA, 3 sequence (LI) (ovarian cancer cells; Genbank AI990940, Cancer): 0.47 Fold
Fold: Butyrophilin, subfamily 3, member A2 (BTN3A2) milk protein (ovarian cancer cells; Genbank AI991252, Autoimmune Diseases): 2.31 Fold
Fold: Disintegrin-like and metalloprotease (reprolysin type) with thrombospondin type 1 motif, highly similar to Homo sapiens metalloproteinase with thrombospondin type 1 motifs (ADAMTS1) (ovarian cancer cells; Genbank AK023795.1): 0.43 Fold
Fold: 3-hydroxyisobutyrate dehydrogenase, mitochondrial precursor (ovarian cancer cells; Genbank AK025558): 0.00 Fold
Fold: NICE-5 protein (ovarian cancer cells; Genbank AW779859, Cancer): 0.48 Fold
Fold: ASPLTFE3 type 2 fusion protein, ASPLTFE3 type 1 fusion protein mRNA in Sarcoma (ovarian cancer cells; Genbank AY034077.1, Cancer): 0.46 Fold
Fold: RASSF3 isoform A, putative tumor suppressor (ovarian cancer cells; Genbank AY062002.1, Cancer): 2.88 Fold
Fold: A kinase (PRKA) anchor protein 1, clone MGC: 1807 (ovarian cancer cells; Genbank BC000729.1): 2.00 Fold
Fold: IMAGE: 3050107 mRNA, TBC1 domain family (ovarian cancer cells; Genbank BC001525, Cancer): 0.67 Fold
Fold: v-Myc avian myelocytomatosis viral related oncogene, neuroblastoma derived (MYCN) (ovarian cancer cells; Genbank BC002712.1, Cancer): 3.99 Fold
Fold: aarF domain containing kinase 4 (ovarian cancer cells; Genbank BC013114): 2.30 Fold
Fold: Similar to vitelliform macular dystrophy (Best disease, bestrophin) (ovarian cancer cells; Genbank BC041664.1, Eye Diseases): 0.26 Fold
Fold: Thrombospondin 1 (THBS1) (ovarian cancer cells; Genbank BE999967): 0.42 Fold
Fold: SNRPN upstream reading frame (SNURF) in Prader-Willi and Angelman syndrome (ovarian cancer cells; Genbank BF114870, Neuromuscular Diseases): 0.39 Fold
Fold: Novel MAFF (v-maf musculoaponeurotic fibrosarcoma (avian) oncogene family, protein F) LIKE protein (ovarian cancer cells; Genbank Cluster Incl. AL021977, Cancer): 0.47 Fold
Fold: Butyrophilin (BTF3) - Milk Fat (ovarian cancer cells; Genbank Cluster Incl. U90548, Autoimmune Diseases): 2.15 Fold
Fold: Facioscapulohumeral muscular dystrophy (FSHD) gene region, D4Z4 tandem repeat unit (ovarian cancer cells; Genbank D38024, Skeletal Diseases): 2.43 Fold
Fold: FYN oncogene related to SRC, FGR and YES, c-syn protooncogene (ovarian cancer cells; Genbank M14333.1, Cancer): 0.44 Fold
Fold: Nephropontin inhibits urine crystals - kidney stones (ovarian cancer cells; Genbank M83248.1, Storage and Metabolism Deficiencies): 2.34 Fold
Fold: FYN oncogene related to SRC, FGR and YES (FYN) (ovarian cancer cells; Genbank N20923, Cancer): 0.13 Fold
Fold: Sarcoglycan, gamma (35 kD dystrophin-associated glycoprotein) (Muscular Dystrophy) (ovarian cancer cells; Genbank NM_000231.1, Skeletal Diseases): 0.04 Fold
Fold: Retinitis pigmentosa GTPase regulator (RPGR) (ovarian cancer cells; Genbank NM_000328.1, Eye Diseases): 0.47 Fold
Fold: UDP-galactose-4-epimerase in epimerase-deficiency galactosemia (ovarian cancer cells; Genbank NM_000403, Storage and Metabolism Deficiencies): 0.66 Fold
Fold: Sulfite oxidase (SUOX), nuclear gene encoding mitochondrial protein (ovarian cancer cells; Genbank NM_000456.1): 2.11 Fold
Fold: Galactosamine (N-acetyl)-6-sulfate sulfatase in Morquio syndrome, mucopolysaccharidosis type IVA (ovarian cancer cells; Genbank NM_000512, Storage and Metabolism Deficiencies): 0.52 Fold
Fold: Regulatory factor X-associated protein (RFXAP)in bare lymphocyte syndrome (ovarian cancer cells; Genbank NM_000538.1, Autoimmune Diseases): 0.41 Fold
Fold: Endothelial cell growth factor 1 (platelet-derived)/Thymidine phosphorylase (ovarian cancer cells; Genbank NM_001953): 0.42 Fold
Fold: Figroblast growth factor 2 (basic)(FGF2) (ovarian cancer cells; Genbank NM_002006.1): 0.35 Fold
Fold: Promyelocytic leukemia (PML) (ovarian cancer cells; Genbank NM_002675.1, Cancer): 2.76 Fold
Fold: Transglutaminase 4 (prostate) (ovarian cancer cells; Genbank NM_003241, Cancer): 0.24 Fold
Fold: Thrombospondin 4 (ovarian cancer cells; Genbank NM_003248): 0.58 Fold
Fold: Thromospondin 4 (THBS4) (ovarian cancer cells; Genbank NM_03248.1): 2.58 Fold
Fold: Dysferlin, limb girdle muscular dystrophy 2B (autosomal recessive) (DYSF) (ovarian cancer cells; Genbank NM_003494.1, Skeletal Diseases): 2.16 Fold
Fold: Peroxisomal biogenesis factor 3 (PEX3) (ovarian cancer cells; Genbank NM_003630.1, Autoimmune Diseases): 0.43 Fold
Fold: Fibroblast growth factor 18 (FGF18) (ovarian cancer cells; Genbank NM_003862.1): 2.75 Fold
Fold: Dystrophin (muscular dystrophy, Duchenne and Becker types), dystrophin Dp40 isoform (DMD) (ovarian cancer cells; Genbank NM_004019.1, Skeletal Diseases): 2.76 Fold
Fold: Vitelliform macular dystrophy (Best disease, bestrophin) (VMD2) (ovarian cancer cells; Genbank NM_004183.1, Eye Diseases): 0.28 Fold
Fold: Smcx homolog, X chromosome (mouse) in nonsyndromic X-linked mental retardation (ovarian cancer cells; Genbank NM_004187, Neuromuscular Diseases): 0.61 Fold
Fold: Enhancer of zeste (Drosophila) homolog 2 (EZH2) (USP14) (ovarian cancer cells; Genbank NM_004456.1, Cancer): 0.47 Fold
Fold: Peroxisomal biogenesis factor 14 (PEX14) in peroxisome biogenesis disorders (ovarian cancer cells; Genbank NM_004565.1, Neuromuscular Diseases): 2.06 Fold
Fold: ATP-binding cassette, sub-family D (ALD), member 2 (ABCD2) in X-linked adrenoleukodystrophy (ovarian cancer cells; Genbank NM_005164.1, Neuromuscular Diseases): 2.71 Fold
Fold: B-cell CLLlymphoma 3 (BCL3) (ovarian cancer cells; Genbank NM_005178.1, Cancer): 2.05 Fold
Fold: Neuroblastoma, suppression of tumorigenicity 1 (NBL1), (ovarian cancer cells; Genbank NM_005380.1, Cancer): 3.07 Fold
Fold: ATP-binding cassette, sub-family B (MDRTAP), member 6 (ABCB6), nuclear gene encoding mitochondrial protein (ovarian cancer cells; Genbank NM_005689.1): 0.46 Fold
Fold: N-cym protein (ovarian cancer cells; Genbank NM_006316, Cancer): 2.38 Fold
Fold: Translocase of inner mitochondrial membrane 44 (yeast) homolog (TIM44) (ovarian cancer cells; Genbank NM_006351.1): 0.50 Fold
Fold: Butyrophilin, subfamily 3, member A3 (BTN3A3) (ovarian cancer cells; Genbank NM_006994.2, Autoimmune Diseases): 2.04 Fold
Fold: Keratocan (KERA) involved in cornea plana (ovarian cancer cells; Genbank NM_007035.2, Eye Diseases): 0.50 Fold
Fold: Disintegrin-like and metalloprotease (reprolysin type) with thrombospondin type 1 motif (ADAMTS5) (ovarian cancer cells; Genbank NM_007038.1): 0.23 Fold
Fold: Angiopoietin-like 2 (ANGPTL2) (ovarian cancer cells; Genbank NM_012098.1): 2.16 Fold
Fold: Nasopharyngeal carcinoma susceptibility protein (LZ16) (ovarian cancer cells; Genbank NM_013275.1, Cancer): 0.41 Fold
Fold: Trichorhinophalangeal syndrome I gene (TRPS1) (ovarian cancer cells; Genbank NM_014112.1, Skeletal Diseases): 0.36 Fold
Fold: Rhabdoid tumor deletion region protein 1 (RTDR1) (ovarian cancer cells; Genbank NM_014433.1, Cancer): 2.20 Fold
Fold: Amyotrophic lateral sclerosis 2 (juvenile) chromosome region, candidate 3 (ALS2CR3) (ovarian cancer cells; Genbank NM_015049.1, Neuromuscular Diseases): 0.41 Fold
Fold: Chromosome 5 open reading frame 4 (C5ORF4), putative tumor suppressor (ovarian cancer cells; Genbank NM_016348.1, Cancer): 2.76 Fold
Fold: Niban protein (NIBAN) (Renal carcinogenesis) (ovarian cancer cells; Genbank NM_022083.1, Cancer): 0.21 Fold
Fold: RNA binding motif protein 5, putative tumor suppressor (LUCA15) (ovarian cancer cells; Genbank U23946.1, Cancer): 0.43 Fold
Fold: A kinase anchor protein S-AKAP84 mRNA, nuclear gene encoding mitochondrial protein (ovarian cancer cells; Genbank U34074.1): 2.14 Fold
Fold: Unknown protein mRNA within the p53 intron 1 (ovarian cancer cells; Genbank U58658.1, Cancer): 0.45 Fold
Expression of TP at the RNA and protein levels [2]: inhibit expression
